Legend:
JAK3 enzyme [1] = biological target: T1, JAK3 enzyme (Homo sapiens, UniProt P52333); assay: JAK Caliper Enzyme Assay at 1 mM ATP; assay type: biochemical
T1 sequence (P52333 1-1124): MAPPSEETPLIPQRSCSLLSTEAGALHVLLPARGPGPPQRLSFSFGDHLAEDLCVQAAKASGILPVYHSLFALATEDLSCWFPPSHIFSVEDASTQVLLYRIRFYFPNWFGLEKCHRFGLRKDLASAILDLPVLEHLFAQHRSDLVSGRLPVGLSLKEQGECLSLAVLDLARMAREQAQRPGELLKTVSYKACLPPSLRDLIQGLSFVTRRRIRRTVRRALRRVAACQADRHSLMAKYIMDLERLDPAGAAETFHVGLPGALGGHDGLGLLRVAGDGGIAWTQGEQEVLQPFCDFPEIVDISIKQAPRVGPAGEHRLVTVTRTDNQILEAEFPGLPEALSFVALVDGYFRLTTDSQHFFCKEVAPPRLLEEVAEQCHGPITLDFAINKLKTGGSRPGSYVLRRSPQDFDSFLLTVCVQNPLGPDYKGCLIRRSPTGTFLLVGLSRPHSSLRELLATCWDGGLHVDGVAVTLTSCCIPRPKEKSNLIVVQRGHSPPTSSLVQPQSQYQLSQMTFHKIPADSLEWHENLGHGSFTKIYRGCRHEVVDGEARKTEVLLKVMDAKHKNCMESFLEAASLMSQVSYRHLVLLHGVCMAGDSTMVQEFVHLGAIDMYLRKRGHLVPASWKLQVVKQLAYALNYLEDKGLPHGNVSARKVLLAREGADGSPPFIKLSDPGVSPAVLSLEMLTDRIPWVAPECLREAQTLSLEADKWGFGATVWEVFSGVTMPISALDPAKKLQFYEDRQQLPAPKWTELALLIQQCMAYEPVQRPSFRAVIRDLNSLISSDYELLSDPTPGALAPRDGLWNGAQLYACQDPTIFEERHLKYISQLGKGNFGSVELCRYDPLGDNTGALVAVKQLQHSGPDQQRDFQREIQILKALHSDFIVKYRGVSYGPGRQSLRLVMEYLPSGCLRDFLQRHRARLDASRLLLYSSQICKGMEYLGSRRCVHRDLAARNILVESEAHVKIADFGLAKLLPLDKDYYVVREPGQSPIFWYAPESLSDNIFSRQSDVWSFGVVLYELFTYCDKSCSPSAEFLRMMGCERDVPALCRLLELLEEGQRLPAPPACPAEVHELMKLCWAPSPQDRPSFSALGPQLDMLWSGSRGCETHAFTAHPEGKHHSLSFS
In short: (§1)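 First, compound stocks in DMSO were serially diluted half-log over 11 points, starting at 600 μM. Next, reactions ran with batch-optimized enzyme and timing targeting 20%-30% phosphorylation. Finally, wells were sampled and product separated from substrate peptide electrophoretically.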

JAK3 enzyme [2] = biological target: T1, JAK3 enzyme; assay: JAK Caliper Enzyme Assay at 4 μM ATP; assay type: biochemical
In short: as §1

[3] = tested on: IL-15 induced P-STAT5 in human PBMC; assay: PBMC IL-15 Induced P-STAT5; assay type: cell-based; conditions: human PBMC, IL-15 final 41 ng/mL; read-out: PBMC IL15_pSTAT5_IC50
In short: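 Thawed human PBMC, rested in human plasma, were preincubated 15 min at 37 °C with compound (0.2% DMSO), then stimulated 15 min with IL-15 at 41 ng/mL final. After paraformaldehyde fixation and methanol permeabilisation, Alexa Fluor 647 anti-STAT5 staining overnight at 4 °C was analysed by flow cytometry on total lymphocytes.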

[4] = tested on: IL-15 induced STAT5 phosphorylation in human whole blood lymphocytes; assay: HWB IL-15 Induced STAT5 Phosphorylation Assay; assay type: cell-based; conditions: Lymphocyte, IL-15 final 50 ng/ml, read-out: HWB_IL15 pSTAT5 IC50
In short: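 Heparinised human whole blood preincubated with compound (0.2% DMSO final) 45 min at 37° C, then stimulated with human IL-15 (50 ng/ml final) for 15 min. After lyse/fix and Perm Buffer III permeabilisation, stained overnight at 4° C with AlexaFluor647 anti-phospho-STAT5; read by flow cytometry gated on total lymphocytes.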

C=CC(=O)N1CCC(Nc2cnc3[nH]cc(C(=O)NCc4sc(C(F)(F)F)nc4C)c3n2)CC1 [Example 180, 2-[(1-acryloylpiperidin-4-yl)amino]-N-{[4-methyl-2-(trifluoromethyl)-1,3-thiazol-5-yl]methyl}-5H-pyrrolo[2,3-b]pyrazine-7-carboxamide]
IC50 (JAK3 enzyme [1]): 12 nM | IC50 (JAK3 enzyme [2]): 0.481 nM | IC50 [3]: 204 nM | IC50 [4]: 944 nM

C=CC(=O)N1CCC(Oc2cnc3[nH]cc(C(=O)NCCOC)c3n2)CC1 [Example 211, 2-[(1-acryloylpiperidin-4-yl)oxy]-N-(2-methoxyethyl)-5H-pyrrolo[2,3-b]pyrazine-7-carboxamide]
IC50 (JAK3 enzyme [1]): 74 nM | IC50 (JAK3 enzyme [2]): 0.5 nM | IC50 [3]: 395 nM | IC50 [4]: 1740 nM

C=CC(=O)N1CCC(Nc2cnc3[nH]cc(C(=O)NCc4ccc(OC(F)F)cc4)c3n2)CC1 [Example 181, 2-[(1-acryloylpiperidin-4-yl)amino]-N-[4-(difluoromethoxy)benzyl]-5H-pyrrolo[2,3-b]pyrazine-7-carboxamide]
IC50 (JAK3 enzyme [1]): 5 nM | IC50 (JAK3 enzyme [2]): 0.379 nM | IC50 [3]: 159 nM | IC50 [4]: 1820 nM

C=CC(=O)N1CCC(Nc2cnc3[nH]cc(C(=O)NCc4ccc(OC)c(F)c4)c3n2)CC1 [Example 190, 2-[(1-acryloylpiperidin-4-yl)amino]-N-(3-fluoro-4-methoxybenzyl)-5H-pyrrolo[2,3-b]pyrazine-7-carboxamide]
IC50 (JAK3 enzyme [1]): 7 nM | IC50 (JAK3 enzyme [2]): 0.193 nM | IC50 [3]: 96.9 nM | IC50 [4]: 619 nM

C=CC(=O)N1CCN(c2cnc3[nH]cc(C(=O)NC4CC(F)(F)C4)c3n2)CC1 [Example 283, 2-(4-acryloylpiperazin-1-yl)-N-(3,3-difluorocyclobutyl)-5H-pyrrolo[2,3-b]pyrazine-7-carboxamide]
IC50 (JAK3 enzyme [1]): 97 nM | IC50 (JAK3 enzyme [2]): 0.509 nM | IC50 [3]: 257 nM | IC50 [4]: 1200 nM

Reference: patent US10703756B2, “Pyrrolo[2,3-D]pyrimidinyl, pyrrolo[2,3-B]pyrazinyl, pyrrolo[2,3-B]pyridinyl acrylamides and epoxides thereof” (Pfizer Inc., priority 2015, dated 2020)
